The nature of data set [1]: Thermogravimetric analysis (TGA). The following applies: heating rate of 10° C. from ambient to 220° C., nitrogen purge. The class given is physicochemical. On the procedure: Thermogravimetric analysis (TGA) measurements were performed using a TA Instruments Model Q-50 module equipped with high resolution capability. Data were collected using TA Instruments Thermal Analyst controller and analyzed using TA Instruments Universal Analysis software. A weighed sample was placed onto a platinum pan and scanned with a heating rate of 10° C. from ambient temperature to 220° C. The balance and furnace chambers were purged with nitrogen flow during use.

The nature of data set [2]: Dynamic moisture sorption (DMS) assessment. The class given is physicochemical. On the procedure:
Dynamic moisture sorption (DMS) measurements were performed using a VTI atmospheric microbalance, SGA-100 system (VTI Corp., Hialeah, Fla. 33016). A weighed sample was used and the relative humidity (RH) was set at the ambient value at the start of the analysis. The sample was subjected to an initial drying step (from 45% RH to 5% RH) followed by two cycles of adsorption (5% RH to 90% RH) and desorption (90% RH to 5% RH) experiments. The DMS analysis used a scan rate of 5% RH/step over the full humidity range of 5% (RH) to 90% RH. The DMS run was performed isothermally at 25° C.

The values below come from US8933111B2, “Crystalline form of (2S,4R)-5-biphenyl-4-yl-2-hydroxymethyl-2-methyl-4-[(1H-[1,2,3]triazole-4-carbonyl)-amino]-pentanoic acid 5-methyl-2-oxo-[1,3]dioxol-4-ylmethyl ester” (Theravance Biopharma R&D IP, LLC, priority 2012, dated 2015).

Consider `Cc1oc(=O)oc1COC(=O)[C@](C)(CO)C[C@@H](Cc1ccc(-c2ccccc2)cc1)NC(=O)c1c[nH]nn1` [crystalline compound, (2S,4R)-5-biphenyl-4-yl-2-hydroxymethyl-2-methyl-4-[(1H-[1,2,3]triazole-4-carbonyl)-amino]-pentanoic acid 5-methyl-2-oxo-[1,3]dioxol-4-ylmethyl ester], for which the “temperature until which the TGA trace shows no weight loss” value in data set [1] was “about 200 °C”. Besides, the “hygroscopicity (DMS profile)” value in data set [2] (5% RH to 90% RH, two adsorption/desorption cycles, 25° C.) is recorded as “non-hygroscopic”. Besides, the “moisture picked up during the adsorption segment” value in data set [2] (adsorption from 5% RH to 90% RH, isothermal at 25° C.) was “less than 0.1 % by weight”. In addition, the “solid form after the DMS experiment (PXRD of post-DMS sample)” value in data set [2] (after two moisture sorption-desorption cycles) is recorded as “no change in the form”.
